# Key:
# [1] = target: T1, porcine pancreatic lipase (Sus scrofa, UniProt P00591); experiment: Activation of ester hydrolase in the vinyl ester reagent system (ADH/NADH coupled, 340 nm); type: biochemical; conditions: for activation of porcine pancreatic lipase by bile salt: vinyl omega-phenyl octanoate as substrate, sodium taurodeoxycholate zero to 25 mM, sodium cholate zero to 10 mM, sodium chenodeoxycholate zero to 15 mM; for activation of porcine pancreatic lipase by quaternary ammonium compound: in the absence of bile salts
# T1 sequence (P00591 1-450): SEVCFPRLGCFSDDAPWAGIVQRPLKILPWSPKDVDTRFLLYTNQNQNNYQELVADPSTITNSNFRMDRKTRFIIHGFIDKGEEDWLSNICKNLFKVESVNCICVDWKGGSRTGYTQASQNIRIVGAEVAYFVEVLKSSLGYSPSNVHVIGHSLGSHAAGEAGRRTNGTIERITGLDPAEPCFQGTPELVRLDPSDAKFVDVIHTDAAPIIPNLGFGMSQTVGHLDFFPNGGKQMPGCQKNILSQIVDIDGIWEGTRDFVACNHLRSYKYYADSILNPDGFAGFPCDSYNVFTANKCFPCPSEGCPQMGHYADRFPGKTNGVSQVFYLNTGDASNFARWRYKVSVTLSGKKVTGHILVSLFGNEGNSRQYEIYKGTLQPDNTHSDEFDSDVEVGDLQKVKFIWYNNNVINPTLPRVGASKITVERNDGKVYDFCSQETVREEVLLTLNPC
# Excerpt: (§1) In accordance with the preferred embodiments of this invention, we prefer to carry out the analysis of carboxylic acid ester hydrolase by admixing an unknown, suspected of containing this enzyme with a reagent system wherein first a vinyl ester of a carboxylic acid is hydrolyzed by the enzyme into the carboxylic acid and unstable vinyl alcohol. As a second step, the vinyl alcohol isomerizes to acetaldehyde. This sequence of conversions is indicated diagrammatically as follows: [drawing 1] The acetaldehyde of reaction (2) may be detected by a variety of means known to the prior art. For example, enzymatic methods are illustrated below in reactions (3a) and (3b), and involve monitoring the disappearance (3a) or appearance (3b) of NADH by measuring its absorbance or fluorescence at suitable wavelengths. The velocity of reactions (3a) or (3b) may then be equated with reaction (1) when the components of the mixture are all in sufficient excess so that only the ester hydrolase activity is limiting. Chemical methods (3c) may include any nonenzymatic means for the quantitative analysis of acetaldehyde. [formula]
# (§2) The range of concentrations of sodium deoxycholate (or its free acid) is from zero to about 25 mM, but the preferred range is about 15 to 21 mM for porcine pancreatic lipase, crude human pancreas extract, and lipase in human blood serum.
# Activation of porcine pancreatic lipase and crude human pancreas extract can also be accomplished with various cationic alkyl and alkyl-aryl quaternary ammonium compounds such as cetyltrimethyl ammonium bromide (CTAB) and cetyldimethylbenzyl ammonium chloride (CDMBAC) in the absence of bile salts. The useful range of CTAB concentrations for activation of porcine pancreatic lipase is from about 4 to 12 mM, but most preferred is from 7 to 9 mM. The useful range of CDMBAC concentrations for activation of porcine pancreatic lipase is from about 2 to 9 mM, but most preferred is about 5 to 9 mM. When used together sodium deoxycholate (or its acid) and either CTAB or CDMBAC activate porcine pancreatic lipase about 10 fold over the activity without these components together. Sodium deoxycholate and CTAB are useful when used together in the ranges of zero to 25 mM and zero to 15 mM, respectively, but the preferred concentrations are 10 mM to 20 mM sodium deoxycholate and 4 mM to 10 mM CTAB. When deoxycholate and CDMBAC are used together for the activation of porcine pancreatic lipase the useful concentrations of deoxycholate are from zero to about 20 mM, but the preferred concentrations are 10 mM to 20 mM deoxycholate and 10 mM to 15 mM CDMBAC.
# (2) Buffer Solution. While the method of preparation of the buffer solution is not critical, one method for forming it is as follows: Weigh into a one liter beaker 3.134 gm 1, 1, 3, 3-tetramethyl-1-phenoxy (polyethoxy) butane (n=polydisperse, average 9) and 12.912 gm 1, 1, 3, 3-tetramethyl-1-phenoxy(polyethoxy)n butane, 70% (n=polydisperse, average 30). Add about 800 ml of deionized or glass redistilled water and stir with a magnetic stirring bar until the detergents are dissolved. Add 9.534 gm sodium deoxycholate and continue stirring until dissolved. Then add 25.652 gm tetrasodium pyrophosphate (Na4 P2 O7.10 H2 O) and stir until the crystals dissolve. Add with stirring in approximately five equal portions a total of 231.51 gm of potassium chloride, allowing each portion to almost completely dissolve before adding the next. Stop the stirring when all of the KCl has dissolved. […]
# porcine liver esterase = experiment: as above; type: biochemical; conditions: for activation of porcine liver esterase by bile salt: vinyl omega-phenyl octanoate as substrate, sodium taurodeoxycholate zero to 25 mM, sodium cholate zero to 10 mM, sodium chenodeoxycholate zero to 15 mM
# Excerpt: as §1, §2
# (2) Buffer Solution. While the method of preparation of the buffer solution is not critical, one method for forming it is as follows: Weigh into a one liter beaker 3.134 gm 1, 1, 3, 3-tetramethyl-1-phenoxy (polyethoxy) butane (n=polydisperse, average 9) and 12.912 gm 1, 1, 3, 3-tetramethyl-1-phenoxy(polyethoxy)n butane, 70% (n=polydisperse, average 30). Add about 800 ml of deionized or glass redistilled water and stir with a magnetic stirring bar until the detergents are dissolved. Add 9.534 gm sodium deoxycholate and continue stirring until dissolved. Then add 25.652 gm tetrasodium pyrophosphate (Na4 P2 O7.10 H2 O) and stir until the crystals dissolve. Add with stirring in approximately five equal portions a total of 231.51 gm of potassium chloride, allowing each portion to almost completely dissolve before adding the next. Stop the stirring when all of the KCl has dissolved. Add 1.15 gm bovine serum albumin by sprinkling on the liquid surface. When all of the BSA has dissolved, begin stirring again and add more water to bring the volume up to about 950 ml. Adjust the pH to 9.1 with dilute HCl solution. […] Quantitatively transfer the solution to a one liter volumetric flask and add water to the mark. […] After any endogenous acetaldehyde in the reagent has been reduced and the corresponding oxidation of NADH has slowed to the normal blank rate, the absorbance at 340 nm in a 1 cm light path will be approximately 1.5. […]
# [2] = target: T2, crude human pancreas extract (human lipase) (Homo sapiens, UniProt P16233); experiment: as above; type: biochemical; conditions: for activation of crude human pancreas extract by quaternary ammonium compound: in the absence of bile salts
# T2 construct: vinyl ester hydrolysis coupled to ADH/NADH
# T2 sequence (P16233 17-465): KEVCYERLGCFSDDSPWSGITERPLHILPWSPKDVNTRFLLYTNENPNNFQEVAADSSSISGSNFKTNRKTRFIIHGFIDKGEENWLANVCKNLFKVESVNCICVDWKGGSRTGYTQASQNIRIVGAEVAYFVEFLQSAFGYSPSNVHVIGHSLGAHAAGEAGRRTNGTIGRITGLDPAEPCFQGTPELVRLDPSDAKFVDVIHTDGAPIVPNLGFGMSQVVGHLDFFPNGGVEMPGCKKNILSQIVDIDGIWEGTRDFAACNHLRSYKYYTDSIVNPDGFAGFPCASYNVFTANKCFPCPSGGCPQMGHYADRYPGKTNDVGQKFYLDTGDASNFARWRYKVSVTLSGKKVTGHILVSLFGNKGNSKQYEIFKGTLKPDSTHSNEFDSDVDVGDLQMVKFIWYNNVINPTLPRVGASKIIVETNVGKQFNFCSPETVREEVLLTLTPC
# Excerpt: As a second step, the vinyl alcohol isomerizes to acetaldehyde. […] The acetaldehyde of reaction (2) may be detected by a variety of means known to the prior art. For example, enzymatic methods are illustrated below in reactions (3a) and (3b), and involve monitoring the disappearance (3a) or appearance (3b) of NADH by measuring its absorbance or fluorescence at suitable wavelengths. The velocity of reactions (3a) or (3b) may then be equated with reaction (1) when the components of the mixture are all in sufficient excess so that only the ester hydrolase activity is limiting. Chemical methods (3c) may include any nonenzymatic means for the quantitative analysis of acetaldehyde.
# The useful range of CTAB concentrations for activation of porcine pancreatic lipase is from about 4 to 12 mM, but most preferred is from 7 to 9 mM. The useful range of CDMBAC concentrations for activation of porcine pancreatic lipase is from about 2 to 9 mM, but most preferred is about 5 to 9 mM. […] Sodium deoxycholate and CTAB are useful when used together in the ranges of zero to 25 mM and zero to 15 mM, respectively, but the preferred concentrations are 10 mM to 20 mM sodium deoxycholate and 4 mM to 10 mM CTAB. When deoxycholate and CDMBAC are used together for the activation of porcine pancreatic lipase the useful concentrations of deoxycholate are from zero to about 20 mM, but the preferred concentrations are 10 mM to 20 mM deoxycholate and 10 mM to 15 mM CDMBAC.
# (2) Buffer Solution. While the method of preparation of the buffer solution is not critical, one method for forming it is as follows: Weigh into a one liter beaker 3.134 gm 1, 1, 3, 3-tetramethyl-1-phenoxy (polyethoxy) butane (n=polydisperse, average 9) and 12.912 gm 1, 1, 3, 3-tetramethyl-1-phenoxy(polyethoxy)n butane, 70% (n=polydisperse, average 30). Add about 800 ml of deionized or glass redistilled water and stir with a magnetic stirring bar until the detergents are dissolved. […] Quantitatively transfer the solution to a one liter volumetric flask and add water to the mark. […]
# [3] = target: T1, porcine pancreatic lipase; conditions: same conditions as glycerol trioleate; cited from earlier work
smiles,measurement,setting,value
C[C@H](CCC(=O)O)[C@H]1CC[C@H]2[C@@H]3[C@H](O)C[C@@H]4C[C@H](O)CC[C@]4(C)[C@H]3CC[C@]12C [sodium chenodeoxycholate],activation of porcine pancreatic lipase by bile salt,[1],slightly activate
same,activation of porcine liver esterase by bile salt,porcine liver esterase,slightly activate
"CCCCCCCCCCCCCCCC[N+](C)(C)Cc1ccccc1.[Cl-] [CDMBAC, cetyldimethylbenzyl ammonium chloride]",activation of porcine pancreatic lipase by quaternary ammonium compound,[1],Activation
same,activation of crude human pancreas extract by quaternary ammonium compound,[2],Activation
C[C@H](CCC(=O)O)[C@H]1CC[C@H]2[C@@H]3[C@H](O)C[C@@H]4C[C@H](O)CC[C@]4(C)[C@H]3C[C@H](O)[C@]12C [sodium cholate],activation of porcine pancreatic lipase by bile salt,[1],slightly activate
same,activation of porcine liver esterase by bile salt,porcine liver esterase,slightly activate
"CCCCCCCCCCCCCCCC[N+](C)(C)C.[Br-] [CTAB, cetyltrimethyl ammonium bromide]",activation of porcine pancreatic lipase by quaternary ammonium compound,[1],Activation
same,activation of crude human pancreas extract by quaternary ammonium compound,[2],Activation
C=COC(=O)CCCCCCC/C=C\CCCCCCCC [vinyl oleate],effectiveness as substrate relative to glycerol trioleate,[3],29.4%
"C[C@H](CCC(=O)NCCS(=O)(=O)O)[C@H]1CC[C@H]2[C@@H]3CC[C@@H]4C[C@H](O)CC[C@]4(C)[C@H]3C[C@H](O)[C@]12C [Sodium taurodeoxycholate, sodium taurodeoxycholate]",activation of porcine pancreatic lipase by bile salt,[1],slightly activate
same,activation of porcine liver esterase by bile salt,porcine liver esterase,slightly activate
C[C@H](CCC(=O)O)[C@H]1CC[C@H]2[C@@H]3CC[C@@H]4C[C@H](O)CC[C@]4(C)[C@H]3C[C@H](O)[C@]12C [sodium deoxycholate],activation of porcine liver esterase by sodium deoxycholate,porcine liver esterase; concentrations up to about 25 mM,only slightly activated
same,activation of human lipase by deoxycholate alone compared with the combination with CDMBAC,"[2]; deoxycholate concentration about above 4 mM, in the absence of CDMBAC",activated to a much greater extent

# Reference: patent US4212939A, “Substrate solution for carboxylic ester hydrolase determination” (The University of Alabama, priority 1977, dated 1980)
